In patent US12653872B2, “Mimotopes of alpha-synuclein and vaccines thereof for the treatment of synucleinopathy” (AC Immune SA, priority 2008, dated 2026):

Assays:
[1] = system: monoclonal antibody specific for human alpha-synuclein at position 115-122 (AFFiRiS3/9, A509); experiment: In vitro inhibition assay (ELISA): peptide competes with binding of the antibody to the coated original epitope; set-up: species or system mouse; conditions: for Inhibition: competition code, OD at 40 μg peptide compared to original peptide; for competition in inhibition ELISA: 40 μg peptide, compared to original peptide p4448, FIG. 3
Experimental: 2. In Vitro Inhibition Assay (ELISA)
Different amounts of peptides (concentrations ranging from 40 μg to 0.3 μg (serial dilutions), as indicated in the respective figures) derived from Phage Display were incubated with the monoclonal antibody that was used for the screening procedure. Peptides diminishing subsequent binding of the antibody to the original human alpha-synuclein epitope (amino acids: 115-122 of human alpha-synuclein protein) coated on ELISA plates were considered as inhibiting in this assay.
Weak inhibition means more peptide is required to lower AB binding than with the original epitope; strong inhibition means similar peptide amounts are required for mimotope and original epitope for lowering AB binding. Mimotopes are compared to the original peptide as standard. OD at 40 μg peptide used in the assay is used to calculate the competition capacity compared to original peptide.

[2] = system: monoclonal antibody specific for human alpha-synuclein at position 115-122 (AFFiRiS3/9, A509); experiment: In vitro binding assay (ELISA): peptide-BSA on plate, incubated with the screening monoclonal antibody; set-up: species or system mouse; conditions: FIG. 1 and FIG. 2
Excerpt: 1. In Vitro Binding Assay (ELISA)

[3] = system: injected peptide (peptide-BSA conjugate); experiment: Mimotope-KLH vaccination of mice: serum titer against injected peptide (ELISA); type: in vivo, C57/Bl6 mice; conditions: for immune response against injected peptide: C57/Bl6 mice, 30 μg peptide-KLH s.c., alum, repeated vaccination; for titers upon vaccination of mice: FIG. 2 legend
Experimental: (§1) Inhibiting as well as non-inhibiting peptides were coupled to KLH and injected into mice (wildtype C57/Bl6 mice; subcutaneous injection into the flank) together with an appropriate adjuvant (aluminium hydroxide). Animals were vaccinated 4-6 times in biweekly intervals and sera were taken biweekly as well. Titers to injected peptides as well as to an irrelevant peptide were determined with every serum. Titers against the recombinant human alpha-synuclein protein and recombinant human beta-synuclein were determined starting with Serum 3 respectively. Pooled sera were tested against the original human alpha-synuclein epitope (aa115-122). In general sera were analysed by reaction against peptides coupled to Bovine Serum Albumin (BSA) and recombinant full length proteins which were immobilised on ELISA plates. Titers were determined using anti mouse IgG specific antibodies. For detailed results see FIGS. 4A, 4B, 5A and 5B.
(§2) Female C57/Bl6 mice, 5-6 mice per group, were subcutaneously immunized with 30 μg peptide coupled to KLH. Control groups were administered p4448-KLH conjugate. As adjuvant alum was used (always 1 mg per mouse). […] The in vitro ELISA assay to determine the antibody titer was performed with sera of single mice or pooled sera (see FIGS. 5A and 5B) after each vaccination in a two week interval (see FIGS. 4A, 4B, 5A and 5B, respectively). The wells of the ELISA plate were coated with mimotope-BSA conjugate and an irrelevant peptide-BSA conjugate (negative control). The positive control was performed by reaction of the parental antibody with the respective mimotope-BSA conjugate. The detection was performed with anti-mouse IgG. Additionally, recombinant proteins were immobilised on ELISA plates and sera reacted accordingly.

irrelevant peptide p1253 = experiment: Mimotope-KLH vaccination of mice: serum titer against irrelevant peptide (ELISA); type: in vivo; conditions: C57/Bl6 mice, alum
Experimental: as §1, §2

[4] = system: recombinant human alpha-synuclein protein; experiment: Mimotope-KLH vaccination of mice: serum titer against recombinant alpha-synuclein (ELISA); type: in vivo, C57/Bl6 mice; conditions: pooled sera after 4 vaccinations; FIG. 5B
Experimental: as §1, §2

[5] = system: recombinant human beta-synuclein; experiment: Mimotope-KLH vaccination of mice: serum titer against recombinant beta-synuclein (ELISA); type: in vivo, C57/Bl6 mice; conditions: pooled sera after 4 vaccinations, FIG. 5B
Experimental: as §1, §2

[6] = system: human a-syn on brain sections of mice overexpressing human a-syn; experiment: In situ testing: immunohistochemistry with mimotope-induced sera on mouse brain sections; conditions: for potential to induce a-syn specific antibodies: vaccines based on the peptide
Experimental: Selected sera eliciting an a-syn cross reactivity were also tested for the ability to detect human a-syn on mouse brain sections in situ. For detailed results see FIGS. 6A, 6B and 6C.
Mimotopes eliciting an a-syn specific immune response can also detect a-syn immunoreactive inclusions in transgenic mouse brain tissue. As depicted in FIGS. 6A, 6B and 6C, sera derived from mimotope vaccinated animals are able to stain a-syn positive structures present on mouse brain sections from animals overexpressing human a-syn. Briefly, sera positive for human a-syn reactivity in ELISA have been used for immunohistochemistry (IHC). Paraffin embedded […] sections of mouse brain, mounted on Superfrost Plus glass slides, were subjected to IHC. Sections were incubated with sera (dilution 1:100 and 1:400 in PBS) and subsequently stained according to standard protocols for immunohistochemistry using VECTASTAIN™ ABC Systems (which is an Avidin-Biotin Complex Immunohistochemical Staining Kit from Vector Laboratories), DAB and MOM blocking (all reactions have been performed using commercially available reagents obtained from Vector labs respectively and have been performed according to manufacturer's protocols). Counterstaining was performed with Haematoxylin. Slides were mounted in Entellan and subsequently documented using conventional brightfield microscopy. A monoclonal antibody specific for human a-syn (LB509, Covance) has been used as a positive control for synuclein detection at a final dilution of 1/250.

CDAPVTPDT [p4563]
Inhibition [1]: 1 (Weaker than original epitope (OD of 40 μg peptide below 5 times of original peptide))

CDAPVYPDG [p4570]
Inhibition [1]: 1 (Weaker than original epitope (OD of 40 μg peptide below 5 times of original peptide))

CDHPVHPDS [p4554]
Inhibition [1]: 1 (Weaker than original epitope (OD of 40 μg peptide below 5 times of original peptide))

CDHPVTPDR [p4559]
Inhibition [1]: 1 (Weaker than original epitope (OD of 40 μg peptide below 5 times of original peptide))

CDLPVTPDR [p4566]
Inhibition [1]: 1 (Weaker than original epitope (OD of 40 μg peptide below 5 times of original peptide))

CDMPVDPDN [p4448, reference compound]
binding to / detection by the monoclonal antibody in ELISA [2]: are detected by the antibody
immune response against injected peptide [3]: elicited immune responses against the injected peptide
immune response against unrelated sequence p1253 (irrelevant peptide p1253): failed to induce an unspecific immune response
reactivity of induced sera with alpha-synuclein [4]: show titers against alpha-synuclein
reactivity of induced sera with beta-synuclein [5]: detect alpha and beta-synuclein
reactivity of induced sera with beta-synuclein ([5]; listed as original epitope): also detected the full length beta-synuclein protein

CDMPVDPGS [p4450]
binding to / detection by the monoclonal antibody in ELISA [2]: are not detected

CDMPVLPD [p4457]
reactivity of induced sera with alpha-synuclein [4]: show titers against alpha-synuclein

CDMPVLPDG [p4497]
Inhibition [1]: 1 (Weaker than original epitope (OD of 40 μg peptide below 5 times of original peptide))

CDMPVLPDN [p4463]
Inhibition [1]: 2 (strong inhibition (as original epitope; OD of 40 μg peptide below 2 times of original peptide))
reactivity of induced sera with alpha-synuclein [4]: show titers against alpha-synuclein

CDMPVSPDR [p4555]
Inhibition [1]: 1 (Weaker than original epitope (OD of 40 μg peptide below 5 times of original peptide))

CDMPVTPDT [p4562]
Inhibition [1]: 2 (strong inhibition (as original epitope; OD of 40 μg peptide below 2 times of original peptide))
potential to induce a-syn specific antibodies [6]: potential to induce a-syn specific antibodies

CDMPVWPDG [p4569]
Inhibition [1]: 1 (Weaker than original epitope (OD of 40 μg peptide below 5 times of original peptide))

CDNPVHPEN [p4492]
competition in inhibition ELISA [1]: do not show competition

CDQPVLPD [p4456]
immune response against injected peptide [3]: elicited immune responses against the injected peptide
immune response against unrelated sequence p1253 (irrelevant peptide p1253): failed to induce an unspecific immune response
potential to induce a-syn specific antibodies [6]: potential to induce a-syn specific antibodies

CDQPVLPDG [p4496]
Inhibition [1]: 1 (Weaker than original epitope (OD of 40 μg peptide below 5 times of original peptide))

CDQPVLPDN [p4462]
Inhibition [1]: 2 (strong inhibition (as original epitope; OD of 40 μg peptide below 2 times of original peptide))

CDQPVYPDI [p4557]
binding to / detection by the monoclonal antibody in ELISA [2]: weaker binding than the original peptide p4448
Inhibition [1]: 1 (Weaker than original epitope (OD of 40 μg peptide below 5 times of original peptide))
titers upon vaccination of mice [3]: > 1/20000

CDRPVAPEG [p4553]
binding to / detection by the monoclonal antibody in ELISA [2]: strong binding
titers upon vaccination of mice [3]: > 1/20000

CDRPVQPDR [p4571]
Inhibition [1]: 1 (Weaker than original epitope (OD of 40 μg peptide below 5 times of original peptide))

CDRPVTPDN [p4491]
competition in inhibition ELISA [1]: show similar competition as the original peptide p4448
Inhibition [1]: 7

CDRPVYPDI [p4558]
Inhibition [1]: 2 (strong inhibition (as original epitope; OD of 40 μg peptide below 2 times of original peptide))

CDSPVHPDT [p4567]
Inhibition [1]: 1 (Weaker than original epitope (OD of 40 μg peptide below 5 times of original peptide))

CDSPVLPDG [p4498]
Inhibition [1]: 1 (Weaker than original epitope (OD of 40 μg peptide below 5 times of original peptide))
a-syn staining by induced serum in immunohistochemistry ([6]; murine hippocampus, human a-syn transgenic, sera diluted 1:100 and 1:400, FIG. 6C): specific a-syn staining similar to the staining present in FIG. 6A
potential to induce a-syn specific antibodies [6]: potential to induce a-syn specific antibodies

CDSPVLPDN [p4464]
Inhibition [1]: 2 (strong inhibition (as original epitope; OD of 40 μg peptide below 2 times of original peptide))

CDSPVVPDN [p4564]
Inhibition [1]: 1 (Weaker than original epitope (OD of 40 μg peptide below 5 times of original peptide))

CDSPVWAEN [p4466]
immune response against injected peptide [3]: elicited immune responses against the injected peptide
immune response against unrelated sequence p1253 (irrelevant peptide p1253): failed to induce an unspecific immune response

CDTPVIPDN [p4495]
Inhibition [1]: 1 (Weaker than original epitope (OD of 40 μg peptide below 5 times of original peptide))

CDTPVLAEN [p4467]
immune response against injected peptide [3]: elicited immune responses against the injected peptide
immune response against unrelated sequence p1253 (irrelevant peptide p1253): failed to induce an unspecific immune response

CDTPVLPDS [p4561]
Inhibition [1]: 2 (strong inhibition (as original epitope; OD of 40 μg peptide below 2 times of original peptide))

CDTPVYPDN [p4494]
Inhibition [1]: 2 (strong inhibition (as original epitope; OD of 40 μg peptide below 2 times of original peptide))

CDVPVLPDN [p4493]
Inhibition [1]: 2 (strong inhibition (as original epitope; OD of 40 μg peptide below 2 times of original peptide))

CEMPVDPDN [P4648]
Inhibition [1]: 1 (Weaker than original epitope (OD of 40 μg peptide below 5 times of original peptide))

CHDRPVTPDN [p4490]
competition in inhibition ELISA [1]: show similar competition as the original peptide p4448
Inhibition [1]: 2 (strong inhibition (as original epitope; OD of 40 μg peptide below 2 times of original peptide))

CYDRPVQPDR [p4572]
Inhibition [1]: 1 (Weaker than original epitope (OD of 40 μg peptide below 5 times of original peptide))

DMPVDPDN
reactivity of induced sera with beta-synuclein [5]: did not distinguish between the two recombinant synuclein proteins

DMPVDPDNC [p4449]
binding to / detection by the monoclonal antibody in ELISA [2]: are detected by the antibody

DMPVDPGSC [p4451]
binding to / detection by the monoclonal antibody in ELISA [2]: are not detected

DMPVLPDC [p4641]
Inhibition [1]: 2 (strong inhibition (as original epitope; OD of 40 μg peptide below 2 times of original peptide))

DQPVLPDC [p4640]
Inhibition [1]: 2 (strong inhibition (as original epitope; OD of 40 μg peptide below 2 times of original peptide))

p4447: Human beta-syn (Full length; NCBI Acc. No. NP_001001502)
binding to / detection by the monoclonal antibody in ELISA [2]: are not detected
